Results reported in ChEMBL document CHEMBL1127210, “Synthesis of 5-glycosylamino pyrimidines. A new class of compounds with potential anti-aids activity” (Bioorg Med Chem Lett, 1993).

Columns and labels:
CCRF-CEM [1] = assay: (§1) In vitro inhibitory activity against HIV infected T4 lymphocytes (CEM cell line); type: functional, cell-based, Homo sapiens
[2] = Therapeutic index (IC50/EC50) was determined
CCRF-CEM [3] = assay: as §1; type: functional, cell-based; details: Homo sapiens
CCRF-CEM [4] = assay: Tested for in vitro anti HIV activity against T4 lymphocytes (CEM cell lines) and effective concentration was reported; type: functional, cell-based; details: Homo sapiens

Compound	IC50 (CCRF-CEM [1]; ccrf-cem)	EC50 (CCRF-CEM [3])	IC50 (CCRF-CEM [1]; Homo sapiens, CCRF-CEM)	EC50 (CCRF-CEM [4])	selectivity ratio [2]
COc1nc(N[C@H]2OC[C@@H](O)[C@H](O)[C@H]2O)c(NC2O[C@@H](CO)[C@@H](O)[C@@H]2O)c(=O)n1C (some centres undefined)	–	–	> 580 µM	–	–
COc1nc2nc(C(O)C(O)CO)cnc2c(=O)n1C (stereo in doubt; 11)	> 220 µM	–	–	–	–
COc1nc(N)c(NC2O[C@H](CO)[C@H](O)[C@H]2O)c(=O)n1C (some centres undefined)	–	–	220 µM	140 µM	> 1.6

Continued, in another order:

IC50 (CCRF-CEM [1]; ccrf-cem)	EC50 (CCRF-CEM [3])	IC50 (CCRF-CEM [1]; Homo sapiens, CCRF-CEM)	EC50 (CCRF-CEM [4])	Compound	selectivity ratio [2]
> 890 µM	–	–	–	COc1nc2nc(C(O)C(O)CO)cnc2c(=O)n1C (stereo in doubt; 10)	–
–	64 µM	> 830 µM	–	COc1nc(N)c(NC2O[C@H](CO)[C@@H](O)[C@H]2O)c(=O)n1C (some centres undefined)	> 13
